# Target: T1, voltage-gated sodium channel (Nav 1.5 channel) (Homo sapiens, UniProt Q14524)
# T1 construct: expressed in transfected cells; host or cells: HEK cells
# Assay: Test Example 14: Nav test (patch clamp, HEK cells)
# Assay type: cell-based
# Conditions: HEK cells expressing Nav 1.5 channel, whole cell patch clamp
# Method: Using a fully automatic patch clamp system (QPatch: Sophion Bioscience A/S), by the whole cell patch clamp method, the cells were maintained at a membrane potential of −100 mV and the induced INa when a −10 mV depolarization stimulus was applied for 20 msec was recorded. […] From the INa obtained, using analysis software (QPatch: Sophion Bioscience A/S), the absolute value of the maximum peak current was measured, with reference to the current value at the maintained membrane potential.
# T1 sequence (Q14524 whole entry): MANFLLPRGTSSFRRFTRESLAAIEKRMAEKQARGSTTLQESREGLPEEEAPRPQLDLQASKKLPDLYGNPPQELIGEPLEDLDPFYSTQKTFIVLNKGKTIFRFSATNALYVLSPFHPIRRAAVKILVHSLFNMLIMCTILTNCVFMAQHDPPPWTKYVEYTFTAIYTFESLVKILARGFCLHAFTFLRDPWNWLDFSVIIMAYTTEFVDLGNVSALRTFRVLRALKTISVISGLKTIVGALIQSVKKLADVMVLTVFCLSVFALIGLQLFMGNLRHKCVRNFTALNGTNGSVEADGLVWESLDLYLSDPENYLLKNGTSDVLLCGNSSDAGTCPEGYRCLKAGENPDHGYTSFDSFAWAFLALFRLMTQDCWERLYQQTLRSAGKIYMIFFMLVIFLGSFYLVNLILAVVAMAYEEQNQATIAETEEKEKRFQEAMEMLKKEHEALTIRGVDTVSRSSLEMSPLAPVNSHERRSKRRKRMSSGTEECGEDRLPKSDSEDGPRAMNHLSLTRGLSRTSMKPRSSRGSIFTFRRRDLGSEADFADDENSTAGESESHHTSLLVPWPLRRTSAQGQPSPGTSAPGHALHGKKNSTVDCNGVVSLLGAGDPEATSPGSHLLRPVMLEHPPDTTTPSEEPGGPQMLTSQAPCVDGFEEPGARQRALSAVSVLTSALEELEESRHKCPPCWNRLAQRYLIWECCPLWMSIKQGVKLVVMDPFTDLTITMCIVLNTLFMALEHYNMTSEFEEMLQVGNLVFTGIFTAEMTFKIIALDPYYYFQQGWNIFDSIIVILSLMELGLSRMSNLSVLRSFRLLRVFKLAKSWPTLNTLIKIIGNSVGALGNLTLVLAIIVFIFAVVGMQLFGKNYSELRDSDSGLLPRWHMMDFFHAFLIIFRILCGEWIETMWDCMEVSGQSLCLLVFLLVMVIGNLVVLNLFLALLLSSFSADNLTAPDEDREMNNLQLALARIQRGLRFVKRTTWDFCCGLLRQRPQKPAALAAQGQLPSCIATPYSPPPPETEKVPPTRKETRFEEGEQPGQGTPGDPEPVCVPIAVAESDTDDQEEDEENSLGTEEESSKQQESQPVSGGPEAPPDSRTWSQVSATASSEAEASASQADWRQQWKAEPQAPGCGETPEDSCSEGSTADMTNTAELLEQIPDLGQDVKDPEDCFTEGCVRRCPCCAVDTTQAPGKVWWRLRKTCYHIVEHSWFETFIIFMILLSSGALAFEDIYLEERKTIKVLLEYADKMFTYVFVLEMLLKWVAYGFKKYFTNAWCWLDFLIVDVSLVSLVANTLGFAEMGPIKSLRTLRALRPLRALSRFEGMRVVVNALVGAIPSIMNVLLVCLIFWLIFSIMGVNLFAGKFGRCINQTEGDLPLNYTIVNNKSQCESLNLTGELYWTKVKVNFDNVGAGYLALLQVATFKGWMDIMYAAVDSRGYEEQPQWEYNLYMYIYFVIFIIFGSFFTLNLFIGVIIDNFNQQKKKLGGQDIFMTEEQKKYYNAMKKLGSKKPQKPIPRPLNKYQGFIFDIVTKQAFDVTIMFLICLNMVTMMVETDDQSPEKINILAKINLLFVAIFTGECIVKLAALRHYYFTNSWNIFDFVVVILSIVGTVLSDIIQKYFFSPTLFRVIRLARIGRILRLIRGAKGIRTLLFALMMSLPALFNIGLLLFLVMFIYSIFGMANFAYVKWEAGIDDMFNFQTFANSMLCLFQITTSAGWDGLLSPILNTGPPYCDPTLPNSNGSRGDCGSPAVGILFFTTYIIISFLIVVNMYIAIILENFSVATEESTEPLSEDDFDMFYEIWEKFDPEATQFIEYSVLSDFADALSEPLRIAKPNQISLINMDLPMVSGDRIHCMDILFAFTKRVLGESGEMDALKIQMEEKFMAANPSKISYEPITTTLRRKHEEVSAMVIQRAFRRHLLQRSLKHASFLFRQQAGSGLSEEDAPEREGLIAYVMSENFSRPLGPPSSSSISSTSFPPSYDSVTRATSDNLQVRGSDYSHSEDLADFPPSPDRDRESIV
row,SMILES,ratio of maximum peak current (INa) on application of compound to that on application of medium
1,CCN1C(=O)c2c(O)c(=O)c(-c3nnc(Cc4c(F)cc(F)cc4F)s3)cn2N2CCOC[C@@H]12 [II-106],109%
2,C[C@H]1CC[C@H]2N(C)C(=O)c3c(O)c(=O)c(-c4nnc(Cc5ccc(F)cc5F)s4)cn3N2C1 [II-120],78.8%
3,CCN1C(=O)c2c(O)c(=O)c(-c3nnc(Cc4ccc(F)cc4F)s3)cn2N2[C@H](COC)CC[C@@H]12 [II-110],89.3%
4,CCN1C(=O)c2c(O)c(=O)c(-c3nnc(Cc4c(F)cc(F)cc4F)s3)cn2N2[C@H](COC)CC[C@@H]12 [II-117],88.8%

# Test system: HIV mutant strain 1 (E138K/G140S/Q148H/N155H)
# Assay: Test Example 2: resistance evaluation test (HeLa-CD4 reporter), mutant strain 1
# Assay type: cell-based
# Conditions: FC=EC50 of mutant strain/EC50 of wild strain; HeLa-CD4 cells
# In short: (§1)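 HeLa-CD4 reporter cells were infected with wild-type or mutant HIV in the presence of serially diluted compound and cultured 3 days. Cell lysates were read by chemiluminescent reporter assay after about 1 h at room temperature. Fold change was calculated as mutant EC50 divided by wild-type EC50.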
row,SMILES,FC in respect of mutant strain 1 (E138K/G140S/Q148H/N155H)
1,CCN1C(=O)c2c(O)c(=O)c(-c3nnc(Cc4c(F)cc(F)cc4F)s3)cn2N2CCOC[C@@H]12 [II-106],15
2,C[C@H]1CC[C@H]2N(C)C(=O)c3c(O)c(=O)c(-c4nnc(Cc5ccc(F)cc5F)s4)cn3N2C1 [II-120],5.8
3,CCN1C(=O)c2c(O)c(=O)c(-c3nnc(Cc4ccc(F)cc4F)s3)cn2N2[C@H](COC)CC[C@@H]12 [II-110],8.2
4,CCN1C(=O)c2c(O)c(=O)c(C(=O)NCc3ccc(F)cc3F)cn2N2C[C@@H](C)C[C@@H]12 [II-045],19
5,CCN1C(=O)c2c(O)c(=O)c(-c3nnc(Cc4c(F)cc(F)cc4F)s3)cn2N2[C@H](COC)CC[C@@H]12 [II-117],10

# Test system: not listed separately
# Assay: Test Example 8: metabolic stability test
# Assay type: in vitro ADME, human
# Conditions: pooled human liver microsomes, 30 min at 37° C., NADPH, compound concentration 0.5 μmol/L
# In short: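 Pooled human liver microsomes (0.5 mg protein/mL, Tris-HCl pH 7.4) incubated with compound and 1 mmol/L NADPH for 0 or 30 min at 37° C. After methanol/acetonitrile quench, remaining parent was quantified by LC/MS/MS or SPE/MS and expressed as % of the 0 min amount.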
row,SMILES,Remaining percentage
1,CCN1C(=O)c2c(O)c(=O)c(-c3nnc(Cc4c(F)cc(F)cc4F)s3)cn2N2CCOC[C@@H]12 [II-106],95.3%
2,C[C@H]1CC[C@H]2N(C)C(=O)c3c(O)c(=O)c(-c4nnc(Cc5ccc(F)cc5F)s4)cn3N2C1 [II-120],95.5%
3,CCN1C(=O)c2c(O)c(=O)c(-c3nnc(Cc4ccc(F)cc4F)s3)cn2N2[C@H](COC)CC[C@@H]12 [II-110],96.5%
4,CCN1C(=O)c2c(O)c(=O)c(C(=O)NCc3ccc(F)cc3F)cn2N2C[C@@H](C)C[C@@H]12 [II-045],96%
5,CCN1C(=O)c2c(O)c(=O)c(-c3nnc(Cc4c(F)cc(F)cc4F)s3)cn2N2[C@H](COC)CC[C@@H]12 [II-117],93.4%

# Test system: HIV mutant strain 2 (E92Q/E138T/G140S/Q148H)
# Assay: Test Example 2: resistance evaluation test (HeLa-CD4 reporter), mutant strain 2
# Assay type: cell-based
# Conditions: FC=EC50 of mutant strain/EC50 of wild strain; HeLa-CD4 cells
# In short: as §1
row,SMILES,FC in respect of mutant strain 2 (E92Q/E138T/G140S/Q148H)
1,CCN1C(=O)c2c(O)c(=O)c(-c3nnc(Cc4c(F)cc(F)cc4F)s3)cn2N2CCOC[C@@H]12 [II-106],20
2,C[C@H]1CC[C@H]2N(C)C(=O)c3c(O)c(=O)c(-c4nnc(Cc5ccc(F)cc5F)s4)cn3N2C1 [II-120],8
3,CCN1C(=O)c2c(O)c(=O)c(-c3nnc(Cc4ccc(F)cc4F)s3)cn2N2[C@H](COC)CC[C@@H]12 [II-110],11
4,CCN1C(=O)c2c(O)c(=O)c(C(=O)NCc3ccc(F)cc3F)cn2N2C[C@@H](C)C[C@@H]12 [II-045],21
5,CCN1C(=O)c2c(O)c(=O)c(-c3nnc(Cc4c(F)cc(F)cc4F)s3)cn2N2[C@H](COC)CC[C@@H]12 [II-117],11

# Test system: HIV
# Assay: Test Example 3: test for confirmation of combined use effect
# Assay type: cell-based
# Set-up: key to D value (dosewise additivity value): <-0.1 synergy, -0.1 to 0.1 additive, >0.1 antagonism
# Conditions: combination with compound (B) Compound C (CAI)
# Source text: The two compounds in respect of which the effect of combined use was desired to be examined were mixed in various ratios, and the anti-HIV activity (50% HIV inhibiting concentration) for each combination was found by the method of test example 1. […] A brief description of the method of calculating the D value is given below.
# The D value that is found by evaluating the anti-HIV activity of respective combinations of M concentrations of compound X1 and N concentrations of compound X2 is calculated by the following mathematical expression 1.
# The effect of combined use was evaluated in terms of the D value in accordance with the following criteria • −0.5 to −0.2: strong synergetic effect • −0.2 to −0.1: weak synergetic effect • […]: additive synergetic effect • 0.1 to 0.2: weak antagonism • 0.2 to 0.5: strong antagonism
SMILES,D value (dosewise additivity value),effect of combined use
CCN1C(=O)c2c(O)c(=O)c(-c3nnc(Cc4ccc(F)cc4F)s3)cn2N2[C@H](COC)CC[C@@H]12 [II-110],0.075,Additive (−0.1 to −0.1: additive synergetic effect)

# Same assay, conditions: combination with compound (B) Darunavin (PI)
row,SMILES,D value (dosewise additivity value)
1,CCN1C(=O)c2c(O)c(=O)c(-c3nnc(Cc4ccc(F)cc4F)s3)cn2N2[C@H](COC)CC[C@@H]12 [II-110],−0.058

# Same assay, conditions: combination with compound (B) Darunavir (PI)
row,SMILES,effect of combined use
1,CCN1C(=O)c2c(O)c(=O)c(-c3nnc(Cc4ccc(F)cc4F)s3)cn2N2[C@H](COC)CC[C@@H]12 [II-110],Additive (−0.1 to −0.1: additive synergetic effect)

# Same assay, conditions: combination with compound (B) GS-6207 (CAI)
SMILES,D value (dosewise additivity value),effect of combined use
CCN1C(=O)c2c(O)c(=O)c(-c3nnc(Cc4ccc(F)cc4F)s3)cn2N2[C@H](COC)CC[C@@H]12 [II-110],0.025,Additive (−0.1 to −0.1: additive synergetic effect)

# Same assay, conditions: combination with compound (B) GSK2838232 (maturation inhibitor)
SMILES,D value (dosewise additivity value),effect of combined use
CCN1C(=O)c2c(O)c(=O)c(-c3nnc(Cc4ccc(F)cc4F)s3)cn2N2[C@H](COC)CC[C@@H]12 [II-110],−0.048,Additive (−0.1 to −0.1: additive synergetic effect)

# Same assay, conditions: combination with compound (B) Lilpiperine (polymerase inhibitor)
row,SMILES,effect of combined use
1,CCN1C(=O)c2c(O)c(=O)c(-c3nnc(Cc4ccc(F)cc4F)s3)cn2N2[C@H](COC)CC[C@@H]12 [II-110],Additive (−0.1 to −0.1: additive synergetic effect)

# Same assay, conditions: combination with compound (B) Ramipzin (3TC) (polymerase inhibitor)
SMILES,D value (dosewise additivity value),effect of combined use
CCN1C(=O)c2c(O)c(=O)c(-c3nnc(Cc4ccc(F)cc4F)s3)cn2N2[C@H](COC)CC[C@@H]12 [II-110],−0.145,Weak synergy (−0.2 to −0.1: weak synergetic effect)

# Same assay, conditions: combination with compound (B) Rilpivirine (polymerase inhibitor)
row,SMILES,D value (dosewise additivity value)
1,CCN1C(=O)c2c(O)c(=O)c(-c3nnc(Cc4ccc(F)cc4F)s3)cn2N2[C@H](COC)CC[C@@H]12 [II-110],−0.073

# Test system: HIV
# Assay: microbe, parasite or virus in culture
# Assay type: cell-based
# Conditions: Human immunodeficiency virus 1, MT4, 96 h, read-out: EC50 (50% HIV inhibition concentration), MT-4 cells, HIV, cultured four days, MTT; compounds of formula (I) of (A)
# Method: A serial dilution series of test samples was prepared in 96-well microplates (50 μL/well).
# 100 μL/well in each case were dispensed onto plates having test samples of 2.5×10^5/mL MT-4 cell suspension, and HIV virus solution was then dispensed thereto in the amount of 50 μL/well. Mixing was performed using a plate mixer and culturing was performed for four days in a CO2 incubator. MTT (3-(4,5-dimethylthiazol-2-yl)-2,5-diphenyltetrazolium bromide) liquid was dispensed into each well in the amount of 30 μL in each case. The reaction was conducted for 1 h in a CO2 incubator. 150 μL of supernatant were removed from each well, taking care not to aspirate any cells. 150 μL of cell solution were added, and thorough mixing was performed with a plate mixer until all the cells had been dissolved. The optical absorbance of the mixed plates was measured at two wavelengths: 560 nm/690 nm, with a microplate reader.
row,SMILES,EC50
1,CCN1C(=O)c2c(O)c(=O)c(-c3nnc(Cc4c(F)cc(F)cc4F)s3)cn2N2CCOC[C@@H]12 [II-106],0.52 nM
2,C[C@H]1CC[C@H]2N(C)C(=O)c3c(O)c(=O)c(-c4nnc(Cc5ccc(F)cc5F)s4)cn3N2C1 [II-120],0.25 nM
3,CCN1C(=O)c2c(O)c(=O)c(-c3nnc(Cc4ccc(F)cc4F)s3)cn2N2[C@H](COC)CC[C@@H]12 [II-110],0.13 nM
4,CCN1C(=O)c2c(O)c(=O)c(-c3nnc(Cc4c(F)cc(F)cc4F)s3)cn2N2[C@H](COC)CC[C@@H]12 [II-117],0.62 nM

# Test system: HIV
# Assay: Test Example 16: anti-HIV activity in the presence of human serum protein (MT-4 cells)
# Assay type: cell-based
# Conditions: 100% extrapolation value, PS=4×(EC50 with 25% human serum protein/EC50 with no human serum protein)
# Method: A stage dilution series of the test samples was created on a 96-well microplate (50 μL/well).
# Aliquots of human serum protein solution (human serum protein concentration 50%) were dispensed in the amount of 100 μL/well to a 96-well microplate containing the test sample. This was then left to stand for 1 h at room temperature. Culture medium in the amount of 100 μL/well in each case was dispensed to a serum-free plate for control purposes. Aliquots of MT-4 cells in the amount of 3.0×10^5/well and HIV virus liquid in the amount of 3 μL/well were mixed for the necessary number of wells and reacted for 1 h at 37° C. After the reaction, the cell suspension was centrifuged and the supernatant discarded; aliquots of infected cells were distributed to culture medium in the amount of 50 μL/well and were dispensed in the amount of 50 μL/well in each case into the wells of a 96-well microplate containing test samples and human serum protein (human serum protein concentration: 25%). Mixing was performed using a plate mixer and culturing was performed for four days with a CO2 incubator. […] MTT(3-(4, 5-dimethylthiazol-2-yl)-2, 5-diphenyltetrazolium bromide) liquid in the amount of 30 μL was dispensed to each of the wells. The reaction was performed for 1 h in a CO2 incubator. 150 μL supernatant was removed to avoid aspirating cells from the wells. 150 μL of cell solution was added and thorough mixing was performed, using a plate mixer, until all the cells were dissolved. The optical absorbance on the mixed plate was measured at two wavelengths, namely, 560 nm/690 nm, using a microplate reader.
# Next, the potency shift (PS) was calculated, using the following formula. The PS is the value of the human serum protein concentration, extrapolated to 100%.
row,SMILES,potency shift (PS) in the presence of human serum protein
1,CCN1C(=O)c2c(O)c(=O)c(C(=O)NCc3ccc(F)cc3F)cn2N2C[C@@H](C)C[C@@H]12 [II-045],236

# Reference: patent publication US12564595B2, “Prophylactic and therapeutic pharmaceutical agent for HIV infectious diseases characterized by comprising combination of integrase inhibitor and anti-HIV agent” (Shionogi & Co., Ltd., priority 2019, dated 2026)
